Results taken from US6759385B1, “Methods to treat undesirable immune responses” (Regents of the University of Minnesota, priority 1997, dated 2004).
“Also recorded” adds a separate entry of the source.

Legend:
anti-FVIII CD4+ cells = experiment: CD4+ epitope repertoire to FVIII in hemophilia A mice; type: cell-based, mouse; conditions: mice immunized s.c. with FVIII in Freund adjuvant
From the text: CD4^+ epitope repertoire to FVIII in hemophilia A mice. Mice were immunized with 1 microgram of purified recombinant human FVIII emulsified in Freund adjuvant, and injected subcutaneously three times. The first injection utilized complete Freund adjuvant. This procedure, as opposed to i.v. injections of soluble FVIII, was selected to ensure a strong immunization to FVIII and to reveal the broadest epitope repertoire recognized by anti-FVIII CD4^+ cells.
FIG. 48 summarizes the results obtained regarding the anti-FVIII CD4^+ repertoire in the mice thus immunized. The individual peptides are indicated with codes that include two numbers, corresponding to the position of the first and last peptide residue on the sequence of the FVIII precursor. The responses to the individual peptides are organized in panels corresponding to the different domains, as indicated.

mice with EMG weakness = experiment: Verification of myasthenic weakness with cholinesterase inhibitor in TAChR-immunized mice; type: in vivo, mouse; conditions: i.p.
Procedure: To verify the myasthenic nature of the weakness observed, mice with significant weakness were injected i.p. with the cholinesterase inhibitor edrophonium chloride (Reversol, Organon Inc., West Orange, N.J.). […] The test was performed blindly, i.e., without knowledge of the treatment that the mouse had received.
Evaluation of Clinical Symptoms of EMG. The symptoms of EMG were quantified using a forced exercise by the inverted hang technique, sensitized by a minute amount of pancuronium bromide (0.03 mg/kg intraperitoneum), given just before the test (Karachunski et al., 1995). The mice hang from a grid, and the time it took for the mouse to release its hold and fall three times is measured (“holding time”). […] This test is parametric, and gives a quantitative assessment of the severity of the mouse weakness. […]
Evaluation of the symptoms of EMG The EMG symptoms were quantified using a forced exercise test sensitized by i.p. injection of a minute amount of pancuronium bromide (0.03 mg/kg) just before the test (Karachunski et al., 1995). The mouse hangs from a grid suspended above a soft padding, and the time it takes the mouse to fall three times (‘holding time’) was measured. The test is parametric, and gives a quantitative assessment of the mouse weakness. […]

[1] = tested on: SCID mice engrafted with BL; experiment: Verification of myasthenic weakness with cholinesterase inhibitor in SCID mice engrafted with BL from MG patients; type: in vivo, mouse
Procedure: Assay of myasthenic symptoms. The myasthenic symptoms were quantified using a forced exercise test sensitized by administration of a minute amount of pancuronium bromide (0.03 mg/kg intraperitoneum) just before the test. The small amount of pancuronium inactivates a fraction of the mouse muscle AChR. […] The mice hang from a grid suspended above a soft padding, and the time it took the mouse to fall three times (“holding time”) was measured. The test is parametric and gives a quantitative assessment of the mouse weakness. The mice were tested without knowledge of the type of cells engrafted.
The myasthenic nature of the weakness was verified by injecting intraperitoneum edrophonium chloride (Reversol; Organon Inc., West Orange, N.J.). […] The concentrations of human IgG and IgM in the mouse sera was measured by ELISA. Microtiter plates (Nunc, Roskilde, Denmark) were coated with goat anti-human IgG or IgM Ab (pierce, Rockford, Ill.) in 20 mM sodium carbonate buffer, pH 9.5 (coating buffer), and blocked any uncoated sites with 3% bovine serum albumin (BSA) in coating buffer. Mouse sera diluted serially in PBS was added, and incubated at 4° C. overnight. After four washings with PBS containing 1% Triton X-100, peroxidase conjugated anti-human IgG and IgM Ab (Sigma, St. Louis, Mo.) was added. […] The optical density of the plates was read at 490 nm in an ELISA reader. […]

EMG = conditions: s.c. or i.p. 300 μg in IFA, 7 days before or 7-18 days after first TAChR immunization; cited from earlier work
[2] = tested on: CD8+ depleted spleen cells; experiment: Lymphocyte proliferation assay, CD8+ depleted spleen cells of IL-4 KO mice; type: cell-based, mouse; conditions: for recognition of individual peptide by cells from sham-treated mice: IL-4 KO mice immunized with TAChR, 10 μg/ml peptide
Procedure: Lymphocyte Proliferation Assay. Two weeks after the last immunization, spleen cells (Bellone et al., 1991) were obtained from three identically treated IL-4 KO mice. The cells were pooled and depleted them in CD8^+ cells using paramagnetic beads and rat anti-mouse CD8^+ antibody (Pharmingen, San Diego, Calif.). The cells were suspended in RPMI-1640 (Gibco, Grand Island, N.Y.) supplemented with 10% heat inactivated fetal calf serum (Gibco), 50 μM 2-mercaptoethanol, 1 mM L-glutamine, 10 mM Hepes, 1 mM sodium pyruvate, 100 U/ml penicillin and 100 μg/ml streptomycin (×10^6 cells/ml). The cells were seeded in triplicate in 96 flat-bottom well plates (200 μl/well). One of the following antigens or stimulants was added: 10 μg/ml phytohemoagglutinine (PHA) (Sigma); 10 μg/ml TAChR; the pools of overlapping peptides spanning the α, β, γ, or δ subunit sequences (5 μg/ml) of each peptide); and 10 μg/ml of the individual a subunit peptides. Controls were triplicate wells cultivated without any antigen, or with or a 20-residue control peptide synthesized by the same method, unrelated to the TAChR sequence (10 μg). After four days the cells were labeled for 16 hours with ^3H-thymidine (1 μCi per well, specific activity 6.7 Ci/mmol, Dupont, Boston, Mass.), and harvested (Titertek, Skatron, Sterling, Va.). The ^3H-thymidine incorporation was measured by liquid scintillation.

[3] = tested on: anti-TAChR and anti-peptide IgG subclasses; experiment: ELISA of anti-TAChR and anti-peptide IgG subclasses (Example III); type: in vivo, mouse; conditions: IL-4 KO mice, nasal α epitope pool
Procedure: Assay of Anti-TAChR and Anti-peptide IgG Subclasses. The relative concentration of IgG subclasses of anti-TAChR and anti-peptide antibodies in the sera of peptide- and sham-treated mice was measured by ELISA after immunization with TAChR. Pooled sera from three-four mice that had received identical treatments was used. The sera used in this assay was obtained at the end of the observation period (10 weeks after beginning of the anti-TAChR immunization).
Ninety-six well plates (Nunc, Karstrup, Denmark) were washed extensively and incubated as follows: 4 hours with a 10 μg/ml solution of TAChR or of individual peptides Tα150-169, Tα181-200 and Tα360-378 in 0.1 M Na phosphate buffer, pH 9.5 (two wells for each antigen), 1 hr with PBS plus 3% bovine serum albumin (BSA), 2 hours with mouse serum (serial dilutions from 1:100 to 1:40,000 in PBS plus 3% BSA), 1 hr with a dilution 1:1000 in PBS plus 3% BSA of goat antibody specific for the total IgG, or IgGl, or IgG2a, or IgG2b or IgG3 (Mouse Monoclonal Isotyping Kit, Sigma, St. Louis, Mo.), and 30 minutes with a 1:3000 dilution of peroxidase-conjugate rabbit anti-goat IgG (Sigma) in PBS plus 3% BSA. The plates were washed, and developed them for 20-60 minutes with ABTS peroxidase substrate system (Kirkegaard & Perry Laboratories Inc., Gaithersburg, Md.). […] The OD was read at 405 nanometers. […]

spleen CD4+ T-cells = experiment: Lymphocyte proliferation assay, spleen CD4+ T-cells (Example IV); type: cell-based, mouse; conditions: TAChR-immunized B6 mice, 5 or 10 μg/ml
Procedure: Lymphocyte proliferation assay. Five to seven days after the last TAChR immunization, CD4^+ T-cells (Bellone et al., 1991a) were purified from the pooled spleens of three to four mice that had received identical treatments. Irradiated (3000 rad) spleen cells from non-immunized mice were diluted as needed in RPMI-1640 (Gibco, Grand Island, N.Y.) supplemented with 10% heat inactivated fetal calf serum (Gibco), 50 μM 2-mercapto-ethanol, 1 mM L-glutamine, 10 mM HEPES, 1 mM sodium pyruvate, 100 U/ml penicillin and 100 μg/ml streptomycin (culture medium) and used as APC. The spleen CD4^+ T-cells (1×10^6/ml in culture medium, 100×1/well) were seeded in triplicate in 96 flat-bottom well plates containing 100×1 of 5×10^6/ml APC. One of the following Ag was added: 10 μg/ml PHA (Sigma); 5 or 10 μg/ml TAChR; 5 or 10 μg/ml of the individual epitope peptides. The concentrations of TAChR and epitope peptides are in the saturating range of the dose dependence curve (Bellone et al., 1991a), and yielded consistent results. Controls were triplicate wells containing CD4^+ cells and APC without any Ag, or with the control peptide (10 μg/ml). After 4 days the cells were labeled for 16 hours with ^3H-thymidine (1 μCi per well, specific activity 6.7 Ci/mmol, Dupont, Boston, Mass.) and harvested (Titertek, Skatron, Sterling, Va.). The ^3H-thymidine incorporation was measured by liquid scintillation, and represented the results as stimulation indexes (S.I.: the ratio between the cpm obtained in the presence of a given stimulus, and the average cpm obtained for non-stimulated control cultures).

## 1-20: synthetic peptide, residues 1-20 of the FVIII precursor (MQIELSTCFFLCLLRFCFSA; UniProt P00451 1-20, looked up, fragment)
anti-FVIII CD4+ cells
  recognition of individual FVIII peptides by CD4+ cells: recognized especially strongly

## 1671-1690: synthetic peptide, residues 1671-1690 of the FVIII precursor (RTTLQSDQEEIDYDDTISVE; UniProt P00451 1671-1690, looked up, fragment)
anti-FVIII CD4+ cells
  recognition of individual FVIII peptides by CD4+ cells: recognized especially strongly

## CC[N+](C)(C)c1cccc(O)c1 [Reversol, edrophonium chloride]
Mice with EMG weakness
  effect on strength of mice with weakness: immediately improved the strength; also recorded: immediately increased the strength
[1]; SCID mice
  effect on muscle strength of mice with normal holding time: did not increase the muscle strength
[1]; intraperitoneum, SCID mice engrafted with BL from MG patients
  effect on strength of affected mice: immediately improved the strength; also recorded: improvement of the muscle strength

## peptide Tα146-162: overlapping synthetic TAChR α subunit peptide that overlaps Tα150-169 (LGIWTYDGTKVSISPES; UniProt P02710 170-186, looked up, fragment)
EMG
  effect on EMG: prevented EMG
[2]; IL-4 KO mice
  recognition of individual peptide by cells from peptide-treated mice: strongly
[2]
  recognition of individual peptide by cells from sham-treated mice: recognized strongly

## peptide Tα360-378: synthetic peptide corresponding to residues 360-378 of the TAChR α subunit (VIFQTPLIKNPDVKSAIEG; UniProt P02710 384-402, looked up, fragment)
[3]
  anti-peptide IgG2a: moderate synthesis of IgG2a
[2]
  recognition of individual peptide by cells from sham-treated mice: recognized strongly
Spleen CD4+ T-cells
  response of CD4+ cells from sham-tolerized mice to the peptide: three of the five
